Experimental data from BindingDB's records for doi:10.1073/pnas.182234399 (Case Western Reserve University, 2002).

Tests used:
[1] = target: D(3) dopamine receptor (Homo sapiens, UniProt P35462)
[2] = target: 5-hydroxytryptamine receptor 1A (Homo sapiens, UniProt P08908)
[3] = target: 5-hydroxytryptamine receptor 6 (Homo sapiens, UniProt P50406)
[4] = target: 5-hydroxytryptamine receptor 2A (Rattus norvegicus, UniProt P14842)
[5] = target: Histamine H1 receptor (Homo sapiens, UniProt P35367)
[6] = target: 5-hydroxytryptamine receptor 1B (Homo sapiens, UniProt P28222)
Sequence of 5-hydroxytryptamine receptor 1B (P28222 whole entry): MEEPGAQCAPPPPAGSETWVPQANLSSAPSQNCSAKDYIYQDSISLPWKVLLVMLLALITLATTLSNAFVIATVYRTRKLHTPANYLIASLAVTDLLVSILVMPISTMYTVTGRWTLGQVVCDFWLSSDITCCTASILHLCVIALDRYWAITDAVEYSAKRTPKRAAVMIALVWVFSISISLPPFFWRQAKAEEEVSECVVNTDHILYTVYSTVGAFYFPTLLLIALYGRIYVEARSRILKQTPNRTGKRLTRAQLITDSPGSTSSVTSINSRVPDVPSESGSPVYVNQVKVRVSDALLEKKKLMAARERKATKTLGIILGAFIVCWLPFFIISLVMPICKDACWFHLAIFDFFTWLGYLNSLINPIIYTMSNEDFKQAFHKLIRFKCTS

[7] = target: 5-hydroxytryptamine receptor 1D (Homo sapiens, UniProt P28221)
[8] = target: 5-hydroxytryptamine receptor 2B (Homo sapiens, UniProt P41595)
[9] = target: 5-hydroxytryptamine receptor 7 (Homo sapiens, UniProt P34969)
Sequence of 5-hydroxytryptamine receptor 7 (P34969 whole entry): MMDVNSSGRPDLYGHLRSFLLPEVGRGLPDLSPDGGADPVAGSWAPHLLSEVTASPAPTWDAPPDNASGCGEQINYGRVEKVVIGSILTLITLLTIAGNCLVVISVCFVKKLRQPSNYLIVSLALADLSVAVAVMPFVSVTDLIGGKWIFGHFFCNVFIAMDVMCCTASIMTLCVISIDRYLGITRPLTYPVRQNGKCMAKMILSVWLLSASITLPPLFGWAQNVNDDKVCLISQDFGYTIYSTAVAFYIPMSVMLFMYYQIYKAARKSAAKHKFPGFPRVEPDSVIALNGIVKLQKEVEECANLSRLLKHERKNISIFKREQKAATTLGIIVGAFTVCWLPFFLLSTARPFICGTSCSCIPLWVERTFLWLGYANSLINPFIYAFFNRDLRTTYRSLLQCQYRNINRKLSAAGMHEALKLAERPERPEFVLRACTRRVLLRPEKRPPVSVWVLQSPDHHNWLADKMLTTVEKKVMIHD

[10] = target: 5-hydroxytryptamine receptor 1E (Homo sapiens, UniProt P28566)
[11] = target: Neuronal acetylcholine receptor subunit alpha-4 (Homo sapiens, UniProt P43681)
[12] = target: Neuronal acetylcholine receptor subunit alpha-4 (Rattus norvegicus, UniProt P09483)
Sequence of Neuronal acetylcholine receptor subunit alpha-4 (Rattus norvegicus, UniProt P09483) (P09483 whole entry): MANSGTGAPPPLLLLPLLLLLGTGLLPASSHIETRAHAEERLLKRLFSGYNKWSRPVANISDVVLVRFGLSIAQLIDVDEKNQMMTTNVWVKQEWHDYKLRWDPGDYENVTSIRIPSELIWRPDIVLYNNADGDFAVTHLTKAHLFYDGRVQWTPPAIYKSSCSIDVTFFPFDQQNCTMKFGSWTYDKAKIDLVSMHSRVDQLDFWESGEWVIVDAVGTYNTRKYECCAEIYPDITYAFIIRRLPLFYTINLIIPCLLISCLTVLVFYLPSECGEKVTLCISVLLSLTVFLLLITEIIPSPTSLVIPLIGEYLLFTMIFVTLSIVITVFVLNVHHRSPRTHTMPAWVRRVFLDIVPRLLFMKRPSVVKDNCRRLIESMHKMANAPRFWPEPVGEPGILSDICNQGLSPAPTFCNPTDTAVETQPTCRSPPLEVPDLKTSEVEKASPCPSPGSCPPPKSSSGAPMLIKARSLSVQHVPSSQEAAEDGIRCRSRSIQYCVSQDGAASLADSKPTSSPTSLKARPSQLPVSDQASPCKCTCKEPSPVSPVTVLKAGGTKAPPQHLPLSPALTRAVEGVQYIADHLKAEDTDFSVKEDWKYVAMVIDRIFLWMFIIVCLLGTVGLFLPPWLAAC

[13] = target: 5-hydroxytryptamine receptor 3A (Homo sapiens, UniProt P46098)
[14] = target: Beta-1 adrenergic receptor (Rattus norvegicus, UniProt P18090)
[15] = target: Muscarinic acetylcholine receptor M3 (Homo sapiens, UniProt P20309)
[16] = target: Metabotropic glutamate receptor 5 (Homo sapiens, UniProt P41594)
[17] = target: D(2) dopamine receptor (Homo sapiens, UniProt P14416)
[18] = target: Alpha-1A adrenergic receptor (Homo sapiens, UniProt P35348)
[19] = target: D(1A) dopamine receptor (Homo sapiens, UniProt P21728)
[20] = target: 5-hydroxytryptamine receptor 5A (Homo sapiens, UniProt P47898)
Sequence of 5-hydroxytryptamine receptor 5A (P47898 whole entry): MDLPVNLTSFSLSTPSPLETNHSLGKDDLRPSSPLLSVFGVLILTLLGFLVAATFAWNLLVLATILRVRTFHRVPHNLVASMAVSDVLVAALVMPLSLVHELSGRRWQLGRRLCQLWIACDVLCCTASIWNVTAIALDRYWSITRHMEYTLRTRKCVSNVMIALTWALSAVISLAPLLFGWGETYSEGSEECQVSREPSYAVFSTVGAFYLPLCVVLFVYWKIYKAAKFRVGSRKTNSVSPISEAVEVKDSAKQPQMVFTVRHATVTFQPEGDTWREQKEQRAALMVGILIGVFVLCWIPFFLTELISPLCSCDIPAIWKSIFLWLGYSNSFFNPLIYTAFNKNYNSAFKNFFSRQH

[21] = target: 5-hydroxytryptamine receptor 2C (Rattus norvegicus, UniProt P08909)
[22] = target: D(1B) dopamine receptor (Homo sapiens, UniProt P21918)
Sequence of D(1B) dopamine receptor (P21918 whole entry): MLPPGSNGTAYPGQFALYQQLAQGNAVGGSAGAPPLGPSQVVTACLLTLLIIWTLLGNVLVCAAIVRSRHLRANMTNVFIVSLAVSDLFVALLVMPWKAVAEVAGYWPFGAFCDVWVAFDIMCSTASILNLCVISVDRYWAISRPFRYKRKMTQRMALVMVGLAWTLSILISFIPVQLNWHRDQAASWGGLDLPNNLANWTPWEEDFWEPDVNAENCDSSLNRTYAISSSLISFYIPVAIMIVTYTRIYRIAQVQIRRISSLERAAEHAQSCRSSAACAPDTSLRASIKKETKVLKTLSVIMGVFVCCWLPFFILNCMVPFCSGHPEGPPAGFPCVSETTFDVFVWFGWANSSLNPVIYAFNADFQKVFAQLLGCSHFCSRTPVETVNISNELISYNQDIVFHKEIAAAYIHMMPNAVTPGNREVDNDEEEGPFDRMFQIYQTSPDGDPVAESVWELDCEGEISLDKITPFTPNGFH

[23] = target: Metabotropic glutamate receptor 4 (Homo sapiens, UniProt Q14833)
Sequence of Metabotropic glutamate receptor 4 (Q14833 whole entry): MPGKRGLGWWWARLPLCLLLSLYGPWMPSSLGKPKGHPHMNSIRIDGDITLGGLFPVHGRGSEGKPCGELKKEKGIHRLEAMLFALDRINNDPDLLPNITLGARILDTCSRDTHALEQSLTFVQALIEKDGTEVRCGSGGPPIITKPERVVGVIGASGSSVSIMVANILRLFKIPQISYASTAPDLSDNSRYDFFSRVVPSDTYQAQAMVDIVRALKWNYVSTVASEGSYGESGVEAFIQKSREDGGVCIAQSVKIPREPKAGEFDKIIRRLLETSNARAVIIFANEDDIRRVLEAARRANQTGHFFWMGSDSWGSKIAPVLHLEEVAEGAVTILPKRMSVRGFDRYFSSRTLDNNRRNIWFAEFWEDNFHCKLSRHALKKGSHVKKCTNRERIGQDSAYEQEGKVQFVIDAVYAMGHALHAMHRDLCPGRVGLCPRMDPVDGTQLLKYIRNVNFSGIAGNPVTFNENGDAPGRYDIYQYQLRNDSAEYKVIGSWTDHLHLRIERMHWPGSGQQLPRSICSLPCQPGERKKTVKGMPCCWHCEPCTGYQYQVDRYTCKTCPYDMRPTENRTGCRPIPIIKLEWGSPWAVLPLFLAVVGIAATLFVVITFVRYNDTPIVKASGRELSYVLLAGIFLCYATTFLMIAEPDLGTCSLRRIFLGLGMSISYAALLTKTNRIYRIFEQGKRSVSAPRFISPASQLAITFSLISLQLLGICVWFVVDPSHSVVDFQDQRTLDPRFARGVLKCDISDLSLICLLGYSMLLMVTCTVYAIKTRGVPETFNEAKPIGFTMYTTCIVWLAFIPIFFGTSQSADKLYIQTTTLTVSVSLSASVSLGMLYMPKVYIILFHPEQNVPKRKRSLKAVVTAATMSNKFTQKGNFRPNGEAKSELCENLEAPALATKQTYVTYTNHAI

[24] = target: Metabotropic glutamate receptor 1 (Homo sapiens, UniProt Q13255)
Sequence of Metabotropic glutamate receptor 1 (Q13255 whole entry): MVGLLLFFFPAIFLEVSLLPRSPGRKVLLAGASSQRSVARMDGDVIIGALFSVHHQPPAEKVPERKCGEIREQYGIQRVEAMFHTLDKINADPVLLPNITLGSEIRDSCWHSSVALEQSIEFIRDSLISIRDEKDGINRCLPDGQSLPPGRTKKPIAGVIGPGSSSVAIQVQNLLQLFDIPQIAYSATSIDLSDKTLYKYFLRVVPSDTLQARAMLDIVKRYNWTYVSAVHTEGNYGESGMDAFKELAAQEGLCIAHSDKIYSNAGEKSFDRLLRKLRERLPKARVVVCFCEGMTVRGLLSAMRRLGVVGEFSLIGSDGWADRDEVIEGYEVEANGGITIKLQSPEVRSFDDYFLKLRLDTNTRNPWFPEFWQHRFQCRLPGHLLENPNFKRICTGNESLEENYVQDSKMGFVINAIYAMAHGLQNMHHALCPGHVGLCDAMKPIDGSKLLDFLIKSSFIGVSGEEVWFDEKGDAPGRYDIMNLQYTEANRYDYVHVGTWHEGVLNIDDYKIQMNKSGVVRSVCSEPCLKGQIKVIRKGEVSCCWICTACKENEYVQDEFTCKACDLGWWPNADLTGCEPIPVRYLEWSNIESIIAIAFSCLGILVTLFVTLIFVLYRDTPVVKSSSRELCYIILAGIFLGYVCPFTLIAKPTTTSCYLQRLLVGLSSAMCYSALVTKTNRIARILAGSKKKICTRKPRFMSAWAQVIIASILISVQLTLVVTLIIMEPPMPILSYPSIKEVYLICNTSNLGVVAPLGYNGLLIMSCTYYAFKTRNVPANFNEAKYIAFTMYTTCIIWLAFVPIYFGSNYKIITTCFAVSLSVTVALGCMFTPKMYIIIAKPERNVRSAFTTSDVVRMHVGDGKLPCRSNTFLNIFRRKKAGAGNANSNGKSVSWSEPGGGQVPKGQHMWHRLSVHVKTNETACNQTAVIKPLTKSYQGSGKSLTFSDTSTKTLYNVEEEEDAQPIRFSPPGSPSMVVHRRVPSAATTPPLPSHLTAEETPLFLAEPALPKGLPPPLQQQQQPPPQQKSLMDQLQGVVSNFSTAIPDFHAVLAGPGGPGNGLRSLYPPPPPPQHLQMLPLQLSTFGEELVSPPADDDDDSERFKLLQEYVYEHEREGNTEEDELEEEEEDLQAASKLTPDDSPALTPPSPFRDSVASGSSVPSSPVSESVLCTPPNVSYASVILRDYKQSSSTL

[25] = target: Metabotropic glutamate receptor 2 (Homo sapiens, UniProt Q14416)
[26] = target: Muscarinic acetylcholine receptor M2 (Homo sapiens, UniProt P08172)
[27] = target: Muscarinic acetylcholine receptor M1 (Homo sapiens, UniProt P11229)
[28] = target: Gamma-aminobutyric acid receptor subunit alpha-1 (Rattus norvegicus, UniProt P62813)
Sequence of Gamma-aminobutyric acid receptor subunit alpha-1 (P62813 whole entry): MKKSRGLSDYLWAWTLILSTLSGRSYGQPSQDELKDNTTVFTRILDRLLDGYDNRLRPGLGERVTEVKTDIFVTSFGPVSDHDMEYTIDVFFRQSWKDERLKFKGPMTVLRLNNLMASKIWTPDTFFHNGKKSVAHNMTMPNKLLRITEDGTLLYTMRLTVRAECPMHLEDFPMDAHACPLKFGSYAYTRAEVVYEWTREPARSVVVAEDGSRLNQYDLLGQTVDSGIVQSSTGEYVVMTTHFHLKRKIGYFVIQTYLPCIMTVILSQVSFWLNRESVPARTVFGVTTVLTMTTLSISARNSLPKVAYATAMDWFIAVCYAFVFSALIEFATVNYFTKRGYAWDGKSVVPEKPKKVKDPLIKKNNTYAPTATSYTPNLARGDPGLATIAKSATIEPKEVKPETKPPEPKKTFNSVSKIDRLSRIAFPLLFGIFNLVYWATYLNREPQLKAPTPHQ

[29] = target: Vasopressin V1b receptor (Homo sapiens, UniProt P47901)
[30] = target: Muscarinic acetylcholine receptor M4 (Homo sapiens, UniProt P08173)
[31] = target: Neuronal acetylcholine receptor subunit alpha-2 (Homo sapiens, UniProt Q15822)
[32] = target: Neuronal acetylcholine receptor subunit alpha-3 (Homo sapiens, UniProt P32297)
[33] = target: D(4) dopamine receptor (Rattus norvegicus, UniProt P30729)
[34] = target: Sodium-dependent dopamine transporter (Bos taurus, UniProt P27922)
[35] = target: Glutamate receptor ionotropic, NMDA 1 (Rattus norvegicus, UniProt P35439)
[36] = target: Metabotropic glutamate receptor 6 (Homo sapiens, UniProt O15303)
[37] = target: Metabotropic glutamate receptor 8 (Homo sapiens, UniProt O00222)
[38] = target: Muscarinic acetylcholine receptor M5 (Homo sapiens, UniProt P08912)
[39] = target: Beta-2 adrenergic receptor (Rattus norvegicus, UniProt P10608)
[40] = target: Vasopressin V2 receptor (Homo sapiens, UniProt P30518)

Measured: Ki

COC(=O)[C@@H]1C[C@H](OC(C)=O)C(=O)[C@H]2[C@@]1(C)CC[C@H]1C(=O)O[C@H](c3ccoc3)C[C@]21C [2S,4aR,6a(R,7R,9S,10aS,10bR)-9-(acetyloxy)-2-(furan-3-yl)dodecahydro-6a,10b-dimethyl-4,10-dioxo-2H-naphtho[2,1-c]pyran-7-carboxylic acid methyl ester]
> 10 µM: all assays above
